Converted amounts (≈) assume the structure as drawn.
Tests used:
[1] = test system: human three-dimensional skin equivalent; experiment: Cell survival rate in human three-dimensional skin equivalent (Cell Count Reagent SF); type: cell-based; conditions: for Cell Survival Rate (Relative Value): 15 days culture, control (PBS) = 1
Procedure: (§1) The effect of inhibiting melanin production in human three-dimensional skin was examined. Human three-dimensional skin equivalent manufactured by MatTek Corp. was purchased and pre-cultured for 1 hour with the dedicated culture medium, EPI-100LLMM, available from the same manufacturer.
(§2) Following pre-culturing, orotic acid-glutamic acid dissolved in phosphate-buffered saline (PBS) was added to the skin surface at a final concentration of 0.2% (w/v), 0.5% (w/v) or 1.0% (w/v), or orotic acid was added to the skin surface at a final concentration of 0.5% (w/v), followed by culturing for 15 days. The cell survival rates of the human three-dimensional skin equivalent following addition of orotic acid or orotic acid-glutamic acid were measured using the Cell Count Reagent SF manufactured by Nacalai-Tesque, Inc. After culturing, the skin was transferred to medium containing 1% Cell Count Reagent SF and after culturing for 3 hours, absorbance was measured at […]. Cell survival rates were calculated as the measured value based on a value of 1 for the control.

[2] = test system: human three-dimensional skin equivalent; experiment: Melanin production inhibition in human three-dimensional skin equivalent; type: cell-based; conditions: for Melanin Production Rate (relative value): 15 days culture, per cell, control (PBS) = 1
Procedure: as §1, §2
After measuring cell survival rates in Experimental Example 2, the skin was thoroughly rinsed with PBS followed by sampling the skin and recovering in a 1.5 mL microtube. 150 μL of a dissolving solution containing sodium dodecyl sulfate (1% (w/v)), 0.05 mM ethylenediaminetetraacetate and 10 mM Tris-HCl (pH 6.8) were added thereto. After stirring, 3 μL of 5 mg/mL protease K were added followed by dissolving for 6 hours at 45° C., adding 25 μL of 500 mM […] and 5 μL of 30% aqueous hydrogen peroxide and further treating for 30 minutes at 80° C. After allowing the sample to cool to room temperature, 20 μL of a 2:1 solution of chloroform and methanol were added to the sample followed by centrifuging for 10 minutes at the highest rotating speed of the centrifuge. 80 μL aliquots of the sample supernatant were recovered onto microplates followed by measurement of absorbance at 405 nm. Melanin production rate was determined by calculating the extinction coefficient of each sample based on a value of 1 for the control and dividing that value by the cell survival rate determined in Example 2 to calculate the melanin production rate per cell.

[3] = test system: aged fibroblasts (NB1RGB cells); experiment: Collagen production in aged human fibroblasts (human collagen type I ELISA); type: cell-based; conditions: 100 μM, 24 hours, culture supernatant; control = 1.00
Procedure: Aged fibroblasts were prepared. Normal human fibroblasts in the form of NB1RGB cells (purchased from the Bioresource Center of Riken Japan) were cultured to confluence in a culture flask, and after culturing for 1 hour in Dulbecco's Modified Eagle Medium (DMEM) manufactured by Sigma Corp. containing 600 μM aqueous hydrogen peroxide and 10% (w/v) fetal calf serum, the cells were washed with PBS and cultured for 24 hours after changing the medium to DMEM containing 10% (w/v) fetal calf serum. This procedure was repeated three times to obtain aged fibroblasts.
The resulting aged fibroblasts were seeded into a plastic Petri dish at a seeding density of about 10,000 cells/cm^2 and then cultured for 24 hours in Dulbecco's Modified Eagle Medium (DMEM) manufactured by Sigma Corp. containing 10% (w/v) fetal calf serum. Subsequently, orotic acid or an orotic acid derivative dissolved in purified water (Table 4) was added to the medium at a final concentration of 100 μmol/L followed by additionally culturing for 24 hours. The medium to which orotic acid or orotic acid derivative had not been added was used as a control.
The culture supernatant was recovered after culturing and collagen production was measured using a human collagen type I ELISA kit manufactured by Acel, Inc. 50 μL of culture supernatant of each sample were added to a microplate treated with collagen antibody provided with the kit. After shake culturing for 1 hour at room temperature, the plate was washed three times with the washing solution provided with the kit. 50 μL of horseradish peroxidase-avidin reagent provided with the kit were added thereto followed by shake culturing for 1 hour at room temperature. After again washing three times with the washing solution, 50 μL of the coloring solution provided with the kit were added followed by allowing to stand undisturbed for 15 minutes at room temperature and adding 50 μL aliquots of reaction stopping solution thereto. After mixing by shaking for 1 minute, absorbance was measured at 450 nm.

[4] = test system: Normal human fibroblasts (NB1RGB cells); experiment: Elastin production in normal human fibroblasts (elastin assay kit); type: cell-based; conditions: 48 hours, control = 1.00
Procedure: Normal human fibroblasts in the form of NB1RGB cells (purchased from the Bioresource Center of Riken Japan) were seeded at a seeding density of about 10,000 cells/cm^2 and cultured for 24 hours in DMEM medium containing 10% (w/v) fetal calf serum. An orotic acid derivative according to the present invention dissolved in pure water to a final concentration of 0 μM (control), 0.1 μM, 1 μM, 10 μM or 100 μM or orotic acid dissolved in purified water to a final concentration of 100 μM was added to DMEM medium containing 10% (w/v) fetal calf serum followed by culturing for 48 hours. The cells were subsequently recovered, the elastin was extracted with an elastin assay kit manufactured by Biocolor Ltd., and absorbance of the extract was measured at a wavelength of 513 nm.

[5] = cited from earlier work
[6] = Effect of pH on water solubility (saturated concentration by HPLC)
Procedure: (§3) Subsequently, the pH of the remaining sample solution was adjusted using 1.0 N or 0.05 N aqueous sodium hydroxide solution, and in the case all of the sample had dissolved in the solution, sample was further added followed by stirring for 15 hours at room temperature (22° C.±2° C.) so that some of the sample was left undissolved and 1 mL of supernatant was similarly collected. Supernatant was repeatedly collected while adjusting the pH as necessary to obtain samples.
(§4) The resulting samples were filtered with a membrane filter having a pore size of 22 μm followed by subjecting the resulting filtrate to high-performance liquid chromatography (HPLC).
(§5) HPLC analyses were carried out using the LC Solution and PDA detector (CBM-20A) manufactured by Shimadzu Corp. and the Shodex RSpak DM-614 column at a column temperature of 40° C. and flow rate of 0.8 ml/min while using 0.02% H3PO4 for the mobile phase.
(§6) The concentration of each sample dissolved in solution was calculated from the area of the peak that coincided with each sample in the resulting analysis data.

[7] = physchem; conditions: 22 °C, thermodynamic from solid
Procedure: as §3, §4, §5, §6

[8] = 22 °C, pH 2.3, water, thermodynamic from solid
[9] = 22 °C, pH 4, aqueous buffer, thermodynamic from solid

For `O=C(O)c1cc(=O)[nH]c(=O)[nH]1` [Orotic acid, reference compound], the “Cell Survival Rate (Relative Value)” value ([1]; 0.5% (w/v) on skin surface) was 1.1, the “Melanin Production Rate (relative value)” value ([2]; 0.5% (w/v)) was 0.70 and the “Effect of inhibiting melanin production, statement in words” value ([2]; human three-dimensional skin equivalent) was “superior effect of inhibiting melanin production”. For the same compound, the “Collagen Production (relative value)” value [3] was 1.14, the “Elastin Production (relative value)” value ([4]; 100 μM) was 1.12 and the Solubility in alcohol ([5]; alcohol such as ethanol) was “practically insoluble”. For the same compound, the Solubility in water ([5]; water) was “extremely insoluble”, the Saturated concentration ([6]; pH 2.3, room temperature (22° C.±2° C.)) was 0.08 % (w/v) and the Saturated concentration ([6]; pH 4.6, room temperature (22° C.±2° C.)) was 0.27 % (w/v). For the same compound, the Saturated concentration ([6]; pH 4.8, room temperature (22° C.±2° C.)) was 0.26 % (w/v), the Saturated concentration ([6]; pH 5.8, room temperature (22° C.±2° C.)) was 0.19 % (w/v) and the Saturated concentration ([6]; pH 7.1, room temperature (22° C.±2° C.)) was 0.16 % (w/v).

With `O=C(O)C[C@H](NC(=O)c1cc(=O)[nH]c(=O)[nH]1)C(=O)O` [Orotic acid-Asp] the solubility thermodynamic at 15 h [6, 8] was 9.5 mg/mL (≈ 35 mM), the solubility thermodynamic at 15 h [6, 9] was 98.2 mg/mL (≈ 362 mM) and the solubility at 15 h ([6]; 22 °C, pH 4.2, aqueous buffer, thermodynamic from solid) was > 111 mg/mL.

In the case of `O=C(O)CC[C@H](NC(=O)c1cc(=O)[nH]c(=O)[nH]1)C(=O)O` [Orotic acid-Glu], the “Cell Survival Rate (Relative Value)” value ([1]; 0.2% (w/v) on skin surface) is reported as 1.4, the “Cell Survival Rate (Relative Value)” value ([1]; 0.5% (w/v) on skin surface) is reported as 1.2 and the “Cell Survival Rate (Relative Value)” value ([1]; 1% (w/v) on skin surface) is reported as 0.9. For the same compound, the “Cell survival rate, statement in words” value ([1]; at the test concentrations 0.2%, 0.5%, 1.0% (w/v)) was “no decreases in cell survival rates observed”, the “Melanin Production Rate (relative value)” value ([2]; 0.2% (w/v)) was 0.61 and the “Melanin Production Rate (relative value)” value ([2]; 0.5% (w/v)) was 0.71. The “Melanin Production Rate (relative value)” value ([2]; 1% (w/v)) was 0.50, the “Collagen Production (relative value)” value [3] was 1.53 and the “Elastin Production (relative value)” value ([4]; 0.1 μM) was 1.20. The “Elastin Production (relative value)” value ([4]; 1 μM) was 1.35, the “Elastin Production (relative value)” value ([4]; 10 μM) was 1.24 and the “Elastin Production (relative value)” value ([4]; 100 μM) was 1.24. It also gave a solubility thermodynamic at 15 h [6, 8] of 13 mg/mL (≈ 45.6 mM) and a solubility thermodynamic at 15 h ([6]; 22 °C, pH 5.2, aqueous buffer, thermodynamic from solid) of 54.3 mg/mL (≈ 190 mM).

In the case of `O=C(O)CNC(=O)c1cc(=O)[nH]c(=O)[nH]1` [Orotic acid-Gly], the “Collagen Production (relative value)” value [3] is reported as 1.23, the solubility thermodynamic at 15 h ([6]; 22 °C, pH 2.8, aqueous buffer, thermodynamic from solid) is reported as 1.1 mg/mL (≈ 5.16 mM) and the solubility thermodynamic at 15 h ([6]; 22 °C, pH 3.6, aqueous buffer, thermodynamic from solid) is reported as 3.2 mg/mL (≈ 15 mM). For the same compound, the solubility thermodynamic at 15 h [6, 9] was 5.5 mg/mL (≈ 25.8 mM), the solubility thermodynamic at 15 h ([6]; 22 °C, pH 4.5, aqueous buffer, thermodynamic from solid) was 16.6 mg/mL (≈ 77.9 mM) and the solubility thermodynamic at 15 h ([6]; 22 °C, pH 5.1, aqueous buffer, thermodynamic from solid) was 38.3 mg/mL (≈ 180 mM). For the same compound, the solubility thermodynamic at 15 h ([6]; 22 °C, pH 6.1, aqueous buffer, thermodynamic from solid) was 66 mg/mL (≈ 310 mM).

For `O=C(N[C@@H](Cc1c[nH]cn1)C(=O)O)c1cc(=O)[nH]c(=O)[nH]1` [Orotic acid-His], the “Collagen Production (relative value)” value [3] was 1.23, the solubility thermodynamic at 15 h ([7]; pH 4.9, aqueous buffer) was 2.2 mg/mL (≈ 7.5 mM) and the solubility thermodynamic at 15 h ([7]; pH 7.2, aqueous buffer) was 12.5 mg/mL (≈ 42.6 mM).

Source: US11045471B2, “Melanin production inhibitor, whitening agent, fibroblast activator, collagen and/or elastin production promotor and wrinkle ameliorant” (SHOWA DENKO K.K., priority 2016, dated 2021)
